# Source: US12365739B2, “Monoclonal antibodies to angiotensin-(1-12), compositions including the same, and methods of use thereof” (Wake Forest University Health Sciences, priority 2021, dated 2025)
# Tests used:
# [1] = test system: TGR(hAGT)L1623 rats; settings: chronic administration; cited from earlier work
# [2] = biological target: T1, Ang II (Homo sapiens, UniProt P01019); experiment: Specificity of immunoneutralization: pressor response to Ang II; assay type: in vivo
# T1 construct: host or cells: injected into TGR(hAGT)L1623 rats
# Description: In a separate group of 12 TGR(hAGT)L1623 rats (6 females) the blood pressure and heart rate responses to intravenous bolus injection of a monoclonal antibody directed against the human amino acid sequence of Ang-(1-12) [Ang-(1-12)-mAb] was administered at a dose of 30 mg/kg. […] The Ang-(1-12)-mAb was diluted in physiological saline to a concentration of 30 mg in a volume not to exceed 1 mL of buffered saline. The specificity of the immunoneutralization of Ang-(1-12) was evaluated in additional experiments in which the rat sequence of Ang-(1-12) (300 pmol/kg, n=2); Ang II (50 pmol/kg; n=3 TGR(hAGT)L1623 rats) or an […] mouse IgG (30 mg/kg, n=4 TGR(hAGT)L1623 rats; Innovative Research, Inc. Novi, MI) were administered intravenously.
# [3] = test system: Sprague Dawley (SD) rats and TGR(hAGT)L1623 rats; experiment: Systemic vasoconstrictor activity of intravenous h-Ang-(1-12); assay type: in vivo, rat; settings: for time to peak of increase in mean arterial pressure: 75-300 pmol/kg i.v.
# Description: Efficacy of Ang-(1-12) Immunoneutralization in vivo: We examined the systemic vasoconstrictor activity of Ang-(1-12) (dose range 75-300 pmol) in 20 (10 females) Sprague Dawley (SD) rats (age 12-weeks) and 20 (10 female) other rats expressing the human sequence of the AGT gene [TGR(hAGT)L1623] (age 10-12 weeks) following induction of general anesthesia with thio-butabarbital sodium [Inactin® (135 mg/kg, i.p.)] and tracheal intubation for mechanical ventilation. Plastic catheters were introduced into a left carotid artery [PE-50 catheter attached to a heparinized saline wash syringe (15 USP U/mL) and a femoral vein (PE-10) for drug delivery. Phasic and mean arterial pressures, recorded with a True Wave pressure transducer (Edwards Lifesciences, Co, Irvine, CA) connected to the arterial cannula, were processed by a data-acquisition and analysis system with Acknowledge 5 software (MP160, BIOPAC System Inc., Goleta, CA). Heart rate was derived by the software from the electrical analysis of the rise portion of the pressure waveform.
# [4] = test system: isolated carotid artery rings; experiment: Ang-(1-12) constrictor activity in isolated carotid artery rings; parameters: species or system rat; settings: concentration of 5×10^−1; SD and TGR(hAGT)L1623 rats; FIG. 7
# From the text: Efficacy of Ang-(1-12) Immunoneutralization in Isolated Carotid Arteries. The ability of the Ang-(1-12)-mAb to block Ang-(1-12) vasoconstrictor activity in 6 SD and 3 TGR(hAGT)L1623 rats was further assessed in isolated carotid artery rings that were mounted in organ chambers as described elsewhere.^3 Under a dissecting microscope, both carotid arteries were dissected free of adventitial tissue, cut into 1.5-2 mm segments and mounted on a myograph (Multi Myograph, Model 610M Danish Myo Technologies, Aarhus, Denmark) using two stainless steel hooks. In all the arterial segments, the endothelium was disrupted by passing a human hair through the lumen of the vessel. The myograph chamber was filled with Krebs-Henseleit buffer (KHB) solution, maintained at 37° C. and aerated with 95% O2/5% CO2. The vessels were washed and incubated for 30 min before determining the optimal diameter. Each arterial segment was stretched to its individual optimal lumen diameter following the normalization procedure previously described. In all studies, after obtaining the optimal diameter, a 30-min equilibration period preceded the addition of the test substances. Contractile responses to a single dose of 62.5 mM KCl was obtained for all segments by calculating the average of three consecutive doses tested at 15 min intervals. This response was used to normalize tension between individual arterial segments. […]
molecule,measurement,setting,value
CCCCC(=O)N(Cc1ccc(-c2ccccc2-c2nnn[nH]2)cc1)[C@H](C(=O)O)C(C)C [valsartan],effect on hypertension,[1],Reversal of the hypertension
angiotensin II (DRVYIHPF; listed as Homo sapiens) [Ang II],peak mean arterial pressure after bolus intravenous Ang II,"[2]; 30-60 min after delivery of the Ang-(1-12) mAb, baseline 100±12 mm Hg",117±13 mm Hg
same,peak mean arterial pressure after bolus intravenous Ang II,"[2]; before the Ang-(1-12) mAb, baseline 95±6 mm Hg",114±8 mm Hg
human angiotensin-(1-12) (DRVYIHPFHLVI; listed as Homo sapiens) [h-Ang-(1-12)],time to peak of increase in mean arterial pressure,[3]; SD rats,32.45 ± 1.08 s
same,time to peak of increase in mean arterial pressure,[3]; TGR(hAGT)L1623 rats,36.20 ± 1.52 s
same,change in mean arterial pressure,[3]; i.v. doses between 75 pmol/kg and 300 pmol/kg,rapid and dose-dependent increases
same,constrictor responses in carotid artery rings normalized for KCL,[4],significant constrictor responses
